In patent US20230248706A1, “METHODS AND COMPOSITIONS FOR THE TREATMENT OF COVID-19 AND ASSOCIATED RESPIRATORY DISTRESS AND MULTI-ORGAN FAILURE, SEPSIS, ACUTE RESPIRATORY DISTRESS SYNDROME, AND CARDIOVASCULAR DISEASES” (priority 2020, published 2023):
pIC50: −log10 of the molar value.

What was measured:
[1] = cited from earlier work
HIF-response element = assay: High-throughput screening of Prestwick library in stable cell line containing the HIF-response element; type: cell-based; settings: Prestwick Chemical Library of FDA-approved drugs (1280 compounds)
LPS-challenged mice [2] = assay: EBA extravasation assay (lung vascular permeability) after LPS challenge; type: in vivo, mouse; settings: for vascular repair (EBA flux): 72h post-LPS; for vascular repair (EBA assay): 96h post-LPS
Experimental: (§1) To induce endotoxemia, mice received a single dose of LPS (0.25-2.5 mg/kg BW, Escherichia coli 055:B5, Santa Cruz, St. Dallas, Tex.) by i.p. injection. The LPS dose was dependent on the aging of the mice (3-9 mo old, 2.5 mg/kg; 19-21 mo. old, 1.0 mg/kg; 25 mo. old, 0.25 mg/kg). All mice were anesthetized with ketamine/xylazine (100/5 mg/kg BW, i.p.) prior to tissue collection. For the survival study, mice were treated with a single dose of LPS (1.5 mg/kg, i.p.) and monitored for 7 days.
Vascular permeability assessment. The Evans blue dye-conjugated albumin (EBA) extravasation assay was performed as previously described (26, 34). Briefly, mice were retro-orbitally injected with EBA at a dose of 20 mg/kg BW at 30 minutes prior to tissue collection. Lungs were perfused free of blood with PBS, blotted dry and weighed. Next, lung tissues were homogenized in 1 ml PBS and incubated with 2 volumes of formamide at 60° C. for 18 hours. The homogenates were then centrifuged at 10,000×g for 30 minutes. The optical density of the supernatant was determined at 620 nm and 740 nm. The extravasated EBA in lung homogenate was presented as μg of Evans blue dye per g lung tissue.

LPS-challenged mice [3] = assay: Lung myeloperoxidase (MPO) activity after LPS challenge; type: in vivo, mouse
Experimental: as §1
Myeloperoxidase assay. Following perfusion free of blood, lung tissues were collected and homogenized in 50 mmol/L phosphate buffer. Homogenates were centrifuged at 15,000×g for 20 minutes at 4° C. The pellets were resuspended in phosphate buffer containing 0.5% hexadecyl trimethylammonium bromide and subjected to a cycle of freezing and thawing. Subsequently, the pellets were homogenized and the homogenates were centrifuged again. Absorbance was measured at 460 nm every 15 secs for 3 minutes and data expressed as ΔOD460/min/g lung tissue (26, 34).

FoxM1 = assay: Quantitative RT-PCR of FoxM1 expression in lung after LPS challenge; type: in vivo, mouse
Experimental: (§2) Molecular analysis. Total RNA was isolated using an RNeasy Mini kit including DNase I digestion (Qiagen, Valencia, Calif.). Following reverse transcription, quantitative RT-PCR analysis was performed using a sequence detection system (ABI ViiA 7 system; Life Technologies, Grand Island, N.Y.). The following primers sets were used for analysis: mouse FoxM1 primers, 5′-[…]-3′ (SEQ ID NO: 1) and 5′-[…]-3′ (SEQ ID NO: 2); mouse cyclophilin primers, 5′-[…]-3′ (SEQ ID NO: 3) and 5′-[…]-3′ (SEQ ID NO: 4). Primers for mouse Cdc25c, Ccna2, Ccnb1, Tnf, Il6, Nos2, and Icam1 were purchased from Qiagen. The mouse gene expression was normalized to cyclophilin.

Cdc25c, Ccna2, and Ccnb1 = assay: Quantitative RT-PCR of FoxM1 target genes essential for cell cycle progression in lung; type: in vivo, mouse; settings: aged mice, treated at 24 and 48h post-LPS
Experimental: as §2

pulmonary vascular ECs = assay: In vivo BrdU labeling of lung endothelial cell proliferation; parameters: species or system mouse; settings: aged mice, treated at 24 and 48h post-LPS
Experimental: Cell proliferation. At 8 h prior to tissue collection, BrdU (Sigma-Aldrich, St Louis, Mo.) was injected i.p. into mice at 50 mg/kg BW. Mouse lung cryosections were stained overnight with anti-BrdU (1:3, BD Biosciences, San Jose, Calif.) and incubated with Alexa Fluo 488-conjugated secondary antibody (1:200, Life Technologies, Grand Island, N.Y.). Lung vascular ECs were immunostained with anti-vWF (1:300, Sigma-Aldrich, St Louis, Mo.) and anti-CD31 (1:100, BD Biosciences, San Jose, Calif.) antibodies at 4° C. then the sections were incubated with Alexa Fluor 594-conjugated secondary antibodies (1:200, Life Technologies, Grand Island, N.Y.). The nuclei were counterstained with DAPI (Life Technologies, Grand Island, N.Y.). Three consecutive cryosections from each mouse lung were examined, the average number of BrdU+ nuclei was used (24, 34).

LPS-challenged mice [4] = assay: Survival after LPS challenge; type: in vivo, mouse; settings: LPS 1.5 mg/kg i.p., treated at 24 and 48h post-LPS
Experimental: To induce endotoxemia, mice received a single dose of LPS (0.25-2.5 mg/kg BW, Escherichia coli 055:B5, Santa Cruz, St. Dallas, Tex.) by i.p. injection. […] All mice were anesthetized with ketamine/xylazine (100/5 mg/kg BW, i.p.) prior to tissue collection. […]

young adult mice = settings: 1 mg/kg i.p., young adult mice (8-10 weeks old), previous study; cited from earlier work
pro-inflammatory genes = type: in vivo, mouse; settings: aged mice (21 mo. old), 25 mg/kg oral at 24h post-LPS (FIG. 13 legend)
Experimental: as §2

TNF-α = assay: Quantitative RT-PCR of TNF-α expression in lung after LPS challenge; type: in vivo, mouse; settings: aged mice (21 mo. old), DMOG at 12 or 24h post-LPS, 72h post-LPS
Experimental: as §2

IL-6 = assay: Quantitative RT-PCR of IL-6 expression in lung after LPS challenge; type: in vivo, mouse
Experimental: as §2

[5] = test system: human lung microvascular ECs (HLMVECs); assay: Apoptosis (TUNEL) in senescent HLMVECs treated with TNF-α/CHX; settings: senescent HLMVECs at passage 16
Excerpt: (§3) (D) Quantification of ROS production. (E) Representative micrographs of TUNEL staining (green) of human lung ECs.
(§4) To further understand the pathogenic role of aging-induced NOX2 in promoting inflammatory lung injury in aged mice, we cultured human lung microvascular ECs (HLMVECs) and passaged many times.

[6] = test system: human lung microvascular ECs (HLMVECs); assay: ROS production (DCF staining) in senescent HLMVECs treated with TNF-α/CHX; settings: senescent HLMVECs at passage 16, TNF-α and Cycloheximide (CHX) treatment
Excerpt: as §3, §4

HDAC = settings: cited from earlier work
NADase = settings: cited from earlier work
p53 = settings: in response to DNA damaging agents; cited from earlier work
[7] = young adult mice (3-5 mo. old), LPS 2.5 mg/kg i.p., 0.25, 0.5, and 5 mg/kg i.p. at 4h post-LPS, 24h post-LPS
[8] = aged mice (21 mo. old), LPS 0.5 mg/kg i.p., 25 mg/kg oral at 24h post-LPS, 72h post-LPS
[9] = aged mice (21 mo. old), DMOG 8 mg/mouse i.p. at 12 or 24h post-LPS, 72h post-LPS
[10] = aged mice (21.5 mos. old), LPS 2 mg/kg i.p., 120 mg/kg oral at 2 h post-LPS, 24h post-LPS
[11] = aged WT mice (20 months), 7 mg/kg i.p. at 1 h prior to LPS, 72h post-LPS

Oc1ccc(/C=C/c2cc(O)cc(O)c2)cc1 [Resveratrol, trans-E-resveratrol]
solubility [1]: poor solubility

Cl.Nc1ccc(/N=N/c2ccccc2)c(N)n1 [Phenazopyridine]
HIF activation in library screen (HIF-response element): activators | vascular repair (EBA flux) (LPS-challenged mice [2]; aged mice (22 mo. old), LPS 1.5 mg/kg i.p., treated at 6h and 24h post-LPS): promote vascular repair

COCCCOc1ccnc(C[S+]([O-])c2nc3ccccc3[nH]2)c1C (centres unmarked) [Rabeprazole]
HIF activation in library screen (HIF-response element): activators | drug-induced vascular repair (EBA) in Foxm1 EC KO mice (LPS-challenged mice [2]; Foxm1 EC-specific knockout mice (3-5 mos. old), treated at 6h and 24h post-LPS, 52h post-LPS): inhibited | drug-induced vascular repair (EBA) in Hif1a KO mice (LPS-challenged mice [2]; Hif1a EC-specific knockout mice (4 mos. old), treated at 6h and 24h post-LPS, 52h post-LPS): inhibited | MPO activity (LPS-challenged mice [3]; aged mice (22 mo. old), LPS 1.5 mg/kg i.p., treated at 6h and 24h post-LPS, 72h post-LPS): returned to levels seen in basal mice | increase of FoxM1 expression compared to either basal or LPS-treated mice (FoxM1; aged mice (22 mo. old), treated at 6h and 24h post-LPS, 72h post-LPS): 3-6 fold | increase of FoxM1 expression compared to either basal or LPS-treated mice (FoxM1; young adult mice 3-5 mos. old, 18 mg/kg oral at 6h and 24h post-LPS, 56h post-LPS): 3 fold

Nc1ncn([C@H]2CC(O)[C@@H](CO)O2)c(=O)n1 (stereo in doubt) [Decitabine, 5-Aza-2′-deoxycytidine]
vascular repair (EBA assay) (LPS-challenged mice [2]; aged mice (21-22 mos. old), 0.2 mg/kg i.p. at 24 h and 48h post-LPS): normalized vascular repair | lung EBA flux (LPS-challenged mice [2]; [7]): no effect | vascular repair (EBA assay) (LPS-challenged mice [2]; young adult mice (3 mos. old), 0.2 mg/kg i.p. at 24 and 48h post-LPS): didn't promote | lung MPO activity (LPS-challenged mice [3]; aged mice (21-22 mos. old), 0.2 mg/kg i.p. at 24 h and 48h post-LPS, 96h post-LPS): returned to basal levels | lung MPO activity (LPS-challenged mice [3]; [7]): no effect | inflammation resolution (MPO assay) (LPS-challenged mice [3]; young adult mice (3 mos. old), 0.2 mg/kg i.p. at 24 and 48h post-LPS, 96h post-LPS): didn't promote | FoxM1 expression (FoxM1; aged mice, treated at 24 and 48h post-LPS, 72h post-LPS, compared to vehicle-treated mice): markedly induced | expression of FoxM1 target genes essential for cell cycle progression (Cdc25c, Ccna2, and Ccnb1): markedly induced | pulmonary vascular EC proliferation (BrdU immunostaining) (pulmonary vascular ECs): drastically increased | mice survived (LPS-challenged mice [4]; aged (20-22 mos. old) WT mice, monitored for 96h): 80% | survival of aged Foxm1 KO mice (LPS-challenged mice [4]; aged Foxm1 EC-specific knockout mice): no protective effects | effect on sepsis-induced inflammatory lung injury (young adult mice): no effects

Cc1nc(C(=O)NCC(=O)O)c(O)c2ccc(Oc3ccccc3)cc12 [FG-4592]
vascular repair (EBA flux) (LPS-challenged mice [2]; aged mice (21 mo. old), LPS 0.5 mg/kg i.p., 25 mg/kg oral at 24h post-LPS): normalized vascular repair | MPO activity (LPS-challenged mice [3]; [8]): inhibited MPO activity | FoxM1 expression (FoxM1; [8]): induced FoxM1 expression | pro-inflammatory cytokine expression (pro-inflammatory genes): marked increase

COC(=O)CNC(=O)C(=O)OC [DMOG, dimethyoxalylglycine]
MPO activity (LPS-challenged mice [3]; [9]): returned to basal levels | increase of FoxM1 expression compared to either basal or non-treated mice (FoxM1; [9]): 3 fold | expression of TNF-α (TNF-α): markedly reduced | expression of IL-6 (IL-6; aged mice (21 mo. old), DMOG at 12 or 24h post-LPS, 72h post-LPS): markedly reduced

CC(=O)N[C@@H](CS)C(=O)O [NAC, N-Acetylcysteine]
MPO activity (LPS-challenged mice [3]; [10]): attenuated | expression of the proinflammatory gene 116 (IL-6; [10]): reduced to a level similar to young adult mice | TNF-α/CHX treatment-induced cell apoptosis [5]: markedly inhibited | ROS generation [6]: inhibited

NC(=O)C1CCCc2c1[nH]c1ccc(Cl)cc21 (centres unmarked) [Selisistat]
lung MPO activity (LPS-challenged mice [3]; [11]): returned to basal levels | FoxM1 expression (FoxM1; [11]): reactivated FoxM1 expression | pIC50 (HDAC): < 4.00 | pIC50 (NADase): < 4.00 | p53 acetylation (p53): Enhances
